Data: ChEMBL document CHEMBL1149993, “Simple cis-epoxide-based inhibitors of HIV-1 protease” (Bioorg Med Chem Lett, 1997)

How the values were obtained:
[1] = molecular target: Human immunodeficiency virus type 1 protease (Human immunodeficiency virus 1) (UniProt Q72874); assay: The compound was evaluated for irreversible inhibition of HIV-1 protease
[2] = molecular target: Human immunodeficiency virus type 1 protease (Human immunodeficiency virus 1) (UniProt Q72874); assay: The compound was evaluated for irreversible inhibition of HIV-1 protease at 20 uM
[3] = Bimolecular rate constant is the ratio of Vinact/Kinact
[4] = molecular target: Human immunodeficiency virus type 1 protease (Human immunodeficiency virus 1) (UniProt Q72874); assay: Maximal inactivation rate towards HIV-1 protease was evaluated
[5] = molecular target: Human immunodeficiency virus type 1 protease (Human immunodeficiency virus 1) (UniProt Q72874); assay: The compound was evaluated for irreversible inhibition of HIV-1 protease at pH 6.5

| Compound | K inact [1] [µM] | inhibition [2] [%] | also measured |
| --- | --- | --- | --- |
| CC(C)C[C@@H]1O[C@@H]1[C@H](Cc1ccccc1)NC(=O)[C@H](C)NC(=O)[C@H](Cc1ccccc1)NC(=O)OCc1ccccc1 | 20 |  |  |
| COC(=O)C(NC(=O)[C@@H]1O[C@@H]1COc1ccc([N+](=O)[O-])cc1)C(C)C (some centres not stated) |  | 22 |  |
| CC(C)C(NC(=O)OCc1ccccc1)C(=O)OC[C@@H]1O[C@@H]1COc1ccc([N+](=O)[O-])cc1 (some centres not stated) |  | 88 | Ratio [3]: 140000 M⁻¹ min⁻¹; Vinact [4]: 0.26 min⁻¹; K inact [5]: 1.8 µM |
| O=[N+]([O-])c1ccc(OCC2CO2)cc1 (configuration not stated) | 11000 |  |  |
| CC(C)C(NC(=O)OCc1ccccc1)C(=O)N[C@@H](Cc1ccccc1)[C@@H]1O[C@@H]1[C@H](Cc1ccccc1)NC(=O)C(NC(=O)OCc1ccccc1)C(C)C (some centres not stated) | 0.075 |  |  |
| COC(=O)C(CC(C)C)NC(=O)[C@@H]1O[C@@H]1COc1ccc([N+](=O)[O-])cc1 (some centres not stated) |  | 30 |  |
| CC(C)C(NC(=O)OCc1ccccc1)C(=O)NC(C(=O)OC[C@@H]1O[C@@H]1COc1ccc([N+](=O)[O-])cc1)C(C)C (some centres not stated) |  | 25 |  |
| COC(=O)C(CC(C)C)NC(=O)[C@@H]1O[C@@H]1CCc1ccccc1 (some centres not stated) |  | 19 |  |
| O=C(OCC1c2ccccc2-c2ccccc21)N1CCC2OC2C1 (configuration not stated) | 65 |  |  |
